Reference: patent US20230310377A1, “METHODS OF TREATING LYSOSOMAL STORAGE DISEASES AND METHODS RELATED THERETO” (RECURSION PHARMACEUTICALS, INC., priority 2020, published 2023)

Legend:
Format in all cases: cell-based
[1] = test system: Sandhoff (HEXB) disease and Tay-Sachs (HEXA) disease patient fibroblasts; experiment: Mean cytoplasmic autofluorescence in patient fibroblasts; conditions: Homo sapiens, Fibroblast, experimentally determined, read-out: autofluorescence ED50
Method: (§1) Healthy, Sandhoff (HEXB) disease, and Tay-Sachs (HEXA) disease patient fibroblasts were plated and treated with ruboxistaurin mesylate twice over 17 days. At day 0 cells were seeded. On day 5 the media was changed and initial dose of the compound was delivered. On day 10 the media was changed again and the second dose of the compound was delivered. On day 17 the cells were fixed, immunoflourescence-labeled, and imaged for GM2 (see FIG. 1). […] FIGS. 2A-1 and 3A depict the dose response for two separate experiments. FIGS. 2B-1 and 3B depict mean fluorescence or mean aggregate count for each experiment±SEM of technical replicates, combining 3-5 patient lines for each group. n=12-40 images from two well replicates imaged at 4-sites per well for each line at each dose. Data in each panel represents n=1 experiment performed. FIGS. 2C and 3C depict nuclei per image from the same image sets.
FIGS. 2D-1 and 2D-2 depict mean cytoplasmic autofluorescence for ruboxistaurin and sotrastaurin, respectively.

[2] = test system: Sandhoff (HEXB) disease and Tay-Sachs (HEXA) disease patient fibroblasts; experiment: GM2 ganglioside accumulation (immunofluorescence) in Sandhoff and Tay-Sachs patient fibroblasts; conditions: Homo sapiens, Fibroblast
Method: as §1
(§2) The same experiment was performed for each of sotrastaurin, enzastaurin, LY2090314, AZD1080, and AZD2858. FIG. 2A-2 depicts the dose response for sotrastaurin. FIG. 2A-3 depicts the dose response for enzastaurin.
EC50 calculations were based on GM2 aggregate counts (not mean fluorescence).
The leftmost concentration in all graphs is DMSO control.

[3] = test system: Sandhoff (HEXB) disease patient fibroblasts; experiment: GM2 ganglioside accumulation in Sandhoff (HEXB) patient fibroblasts; conditions: Homo sapiens, Fibroblast, read-out: GM2 ganglioside ED50 for HEXB
Method: as §1, §2

[4] = test system: Tay-Sachs (HEXA) disease patient fibroblasts; experiment: GM2 ganglioside accumulation in Tay-Sachs (HEXA) patient fibroblasts; conditions: Homo sapiens, Fibroblast, read-out: GM2 ganglioside ED50 for HEXA
Method: as §1, §2

[5] = experimentally determined, patient fibroblasts, read-out: GM2 ganglioside ED50
[6] = GM2 aggregate counts (not mean fluorescence), Expmts 1936 and 1925, read-out: ED50 based on GM2 aggregate counts

| Compound | EC50 [2, 5] [nM] | EC50 [2, 6] [nM] | also measured |
| --- | --- | --- | --- |
| CN(C)C[C@@H]1CCn2cc(c3ccccc32)C2=C(C(=O)NC2=O)c2cn(c3ccccc23)CCO1 [Ruboxistaurin, (18S)-18-[(dimethylamino)methyl]-17-oxa-4,14,21-triazahexacyclo[19.6.1.17,14.02,6.08,13.022,27]nonacosa-1(28),2(6),7(29),8,10,12,22,24,26-nonaene-3,5-dione] | ~300 |  | EC50 [1]: ~250 nM |
| O=C1NC(=O)C(c2cnc3ccccn23)=C1c1cn2c3c(cc(F)cc13)CN(C(=O)N1CCCCC1)CC2 [LY2090314] |  | 8.76 |  |
| CN1CCN(c2nc(C3=C(c4c[nH]c5ccccc45)C(=O)NC3=O)c3ccccc3n2)CC1 [Sotrastaurin] | ~90 |  |  |
| N#Cc1ccc2[nH]c(O)c(-c3ccc(CN4CCOCC4)cn3)c2c1 [AZD1080] |  | 1590 |  |
| Cn1cc(C2=C(c3cn(C4CCN(Cc5ccccn5)CC4)c4ccccc34)C(=O)NC2=O)c2ccccc21 [Enzastaurin] |  |  | EC50 [3]: ~550 nM; EC50 [4]: ~265 nM |
